Key:
[1] = Solubility of the raw material; type: physicochemical; settings: needs to be pre-dissolved at 80°C in propylene glycol
[2] = system: Propionibacterium acnes; settings: cited from earlier work; for antibacterial / antimicrobial activity against Propionibacterium Acnes: raw material description, PCA ethyl cocoyl arginate at a pH lower than 7

CCCCCCCCCCCC(=O)N[C@@H](CCCNC(=N)N)C(=O)O [Lauroyl arginine]
solubility [1]: poorly soluble

Laureth-7 citrate
effectiveness as antibacterial against Propionibacterium acnes ([2]; compared with other surfactants, US2008/0070986): 2 magnitude orders less effective | antibacterial / antimicrobial activity against Propionibacterium Acnes [2]: known antibacterial properties

PCA ethyl cocoyl arginate
antibacterial / antimicrobial activity against Propionibacterium Acnes [2]: antimicrobial activity

Reference: EP3505218B1, “A GENTLE DETERGENT COMPOSITION FOR GREASY AND ACNEIC SKINS” (Unifarco S.p.A., priority 2017, dated 2019)
